Experiments:
OPM-2 = assay: Assay 2: multiple myeloma cellular efficacy, PrestoBlue cell proliferation/survival; format: cell-based; conditions: Homo sapiens, 96 h, OPM-2 cells, 4 days
How it was run: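 Cells seeded at 10000/well and exposed to a compound dose range or vehicle for 4 days, then stained with PrestoBlue for 2 h at 37 °C. Fluorescence was background-subtracted and normalized to vehicle; EC50 came from a four-parameter variable-slope fit against log concentration.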

CECR2 = molecular target: T1, CECR2 (Homo sapiens, UniProt Q9BXF3); assay: BromoKdMAX (BROMOscan, DiscoverX); format: binding
T1 construct: T7 phage strains displaying bromodomains were grown in parallel; purchased DiscoverX; host or cells: T7 phage grown in E. coli host derived from BL21
Protocol: (§1) A BromoKdMAX was performed at DiscoverX.
(§2) BROMOscan™ is a novel industry leading platform for identifying small molecule bromodomain inhibitors. Based on proven KINOMEscan™ technology, BROMOscan™ employs a proprietary ligand binding site-directed competition assay to quantitatively measure interactions between test compounds and bromodomains. This robust and reliable assay panel is suitable for high throughput screening and delivers quantitative ligand binding data to facilitate the identification and optimization of potent and selective small molecule bromodomain inhibitors.
(§3) For the Bromodomain assays, T7 phage strains displaying bromodomains were grown in parallel in 24-well blocks in an E. coli host derived from the BL21 strain. E. coli were grown to log-phase and infected with T7 phage from a frozen stock (multiplicity of infection=0.4) and incubated with shaking at 32° C. until lysis (90-150 minutes). The lysates were centrifuged (5,000×g) and filtered (0.2 μm) to remove cell debris. […] The liganded beads were blocked with excess biotin and washed with blocking buffer (SeaBlock (Pierce), 1% BSA, 0.05% Tween 20, 1 mM DTT) to remove unbound ligand and to reduce non-specific phage binding. […] Test compounds were prepared as 1000× stocks in 100% DMSO. Kds were determined using an 11-point 3-fold compound dilution series with one DMSO control point. […] The compounds were then diluted directly into the assays such that the final concentration of DMSO was 0.09%. All reactions performed in polypropylene 384-well plates. Each was a final volume of 0.02 ml. […] The bromodomain concentration in the eluates was measured by qPCR.

BRD1 = molecular target: T2, BRD1 (Homo sapiens, UniProt O95696); assay: BromoKdMAX (BROMOscan, DiscoverX); format: binding
T2 construct: T7 phage strains displaying bromodomains were grown in parallel; purchased DiscoverX; host or cells: T7 phage in an E. coli host derived from the BL21 strain
Protocol: as §1, §2, §3

SMARCA2 = molecular target: T3, SMARCA2 (Homo sapiens, UniProt P51531); assay: BromoKdMAX (BROMOscan, DiscoverX); format: binding
T3 construct: T7 phage strains displaying bromodomains were grown in parallel; purchased DiscoverX; host or cells: T7 phage grown in E. coli host derived from BL21
Protocol: as §1, §2, §3

BRDT(1, 2) = molecular target: T4, BRDT(1, 2) (Homo sapiens, UniProt Q58F21); assay: BromoKdMAX (BROMOscan, DiscoverX); format: binding
T4 construct: T7 phage strains displaying bromodomains were grown in parallel; purchased DiscoverX; host or cells: T7 phage in an E. coli host derived from the BL21 strain
Protocol: as §1, §2, §3

FALZ = molecular target: T5, FALZ (Homo sapiens, UniProt Q12830); assay: BromoKdMAX (BROMOscan, DiscoverX); format: binding; conditions: FALZ (BPTF)
T5 construct: T7 phage strains displaying bromodomains were grown in parallel; purchased DiscoverX; host or cells: T7 phage grown in E. coli host derived from BL21
Protocol: as §1, §2, §3

ATAD2A = molecular target: T6, ATAD2A (Homo sapiens, UniProt Q6PL18); assay: BromoKdMAX (BROMOscan, DiscoverX); format: binding
T6 construct: T7 phage strains displaying bromodomains were grown in parallel; purchased DiscoverX; host or cells: T7 phage in an E. coli host derived from the BL21 strain
Protocol: as §1, §2, §3

BRD3(2) = molecular target: T7, BRD3(2) (Homo sapiens, UniProt Q15059); assay: BromoKdMAX (BROMOscan, DiscoverX); format: binding
T7 construct: T7 phage strains displaying bromodomains were grown in parallel; purchased DiscoverX; host or cells: T7 phage in an E. coli host derived from the BL21 strain
Protocol: as §1, §2, §3

GCN5L2 = molecular target: T8, GCN5L2 (Homo sapiens, UniProt Q92830); assay: BromoKdMAX (BROMOscan, DiscoverX); format: binding; conditions: GCN5L2 (KAT2A)
T8 construct: T7 phage strains displaying bromodomains were grown in parallel; purchased DiscoverX; host or cells: T7 phage grown in E. coli host derived from BL21
Protocol: as §1, §2, §3

ATAD2B = molecular target: T9, ATAD2B (Homo sapiens, UniProt Q9ULI0); assay: BromoKdMAX (BROMOscan, DiscoverX); format: binding
T9 construct: T7 phage strains displaying bromodomains were grown in parallel; purchased DiscoverX; host or cells: T7 phage in an E. coli host derived from the BL21 strain
Protocol: as §1, §2, §3

BRD7 = molecular target: T10, BRD7 (Homo sapiens, UniProt Q9NPI1); assay: BromoKdMAX (BROMOscan, DiscoverX); format: binding
T10 construct: T7 phage strains displaying bromodomains were grown in parallel; purchased DiscoverX; host or cells: T7 phage in an E. coli host derived from the BL21 strain
Protocol: as §1, §2, §3

SMARCA4 = molecular target: T11, SMARCA4 (Homo sapiens, UniProt P51532); assay: BromoKdMAX (BROMOscan, DiscoverX); format: binding
T11 construct: T7 phage strains displaying bromodomains were grown in parallel; purchased DiscoverX; host or cells: T7 phage grown in E. coli host derived from BL21
Protocol: as §1, §2, §3

BRD3(1) = molecular target: T12, BRD3(1) (Homo sapiens, UniProt Q15059); assay: BromoKdMAX (BROMOscan, DiscoverX); format: binding
T12 construct: T7 phage strains displaying bromodomains were grown in parallel; purchased DiscoverX; host or cells: T7 phage in an E. coli host derived from the BL21 strain
Protocol: as §1, §2, §3

TAF1L(2) = molecular target: T13, TAF1L(2) (Homo sapiens, UniProt Q8IZX4); assay: BromoKdMAX (BROMOscan, DiscoverX); format: binding
T13 construct: T7 phage strains displaying bromodomains were grown in parallel; purchased DiscoverX; host or cells: T7 phage grown in E. coli host derived from BL21
Protocol: as §1, §2, §3

BRPF1 = molecular target: T14, BRPF1 (Homo sapiens, UniProt P55201); assay: BromoKdMAX (BROMOscan, DiscoverX); format: binding
T14 construct: T7 phage strains displaying bromodomains were grown in parallel; purchased DiscoverX; host or cells: T7 phage in an E. coli host derived from the BL21 strain
Protocol: as §1, §2, §3

BRDT(2) = molecular target: T15, BRDT(2) (Homo sapiens, UniProt Q58F21); assay: BromoKdMAX (BROMOscan, DiscoverX); format: binding
T15 construct: T7 phage strains displaying bromodomains were grown in parallel; purchased DiscoverX; host or cells: T7 phage in an E. coli host derived from the BL21 strain
Protocol: as §1, §2, §3

BAZ2A = molecular target: T16, BAZ2A (Homo sapiens, UniProt Q9UIF9); assay: BromoKdMAX (BROMOscan, DiscoverX); format: binding
T16 construct: T7 phage strains displaying bromodomains were grown in parallel; purchased DiscoverX; host or cells: T7 phage in an E. coli host derived from the BL21 strain
Protocol: as §1, §2, §3

BRD9 = molecular target: T17, BRD9 (Homo sapiens, UniProt Q9H8M2); assay: BromoKdMAX (BROMOscan, DiscoverX); format: binding
T17 construct: T7 phage strains displaying bromodomains were grown in parallel; purchased DiscoverX; host or cells: T7 phage in an E. coli host derived from the BL21 strain
Protocol: as §1, §2, §3

BRDT(1) = molecular target: T18, BRDT(1) (Homo sapiens, UniProt Q58F21); assay: BromoKdMAX (BROMOscan, DiscoverX); format: binding
T18 construct: T7 phage strains displaying bromodomains were grown in parallel; purchased DiscoverX; host or cells: T7 phage in an E. coli host derived from the BL21 strain
Protocol: as §1, §2, §3

PCAF = molecular target: T19, PCAF (Homo sapiens, UniProt Q92831); assay: BromoKdMAX (BROMOscan, DiscoverX); format: binding; conditions: PCAF (KAT2B)
T19 construct: T7 phage strains displaying bromodomains were grown in parallel; purchased DiscoverX; host or cells: T7 phage grown in E. coli host derived from BL21
Protocol: as §1, §2, §3

TRIM24(Bromo.) = molecular target: T20, TRIM24(Bromo.) (Homo sapiens, UniProt O15164); assay: BromoKdMAX (BROMOscan, DiscoverX); format: binding
T20 construct: T7 phage strains displaying bromodomains were grown in parallel; purchased DiscoverX; host or cells: T7 phage grown in E. coli host derived from BL21
Protocol: as §1, §2, §3

WDR9(2) = molecular target: T21, WDR9(2) (Homo sapiens, UniProt Q9NSI6); assay: BromoKdMAX (BROMOscan, DiscoverX); format: binding; conditions: WDR9(2) (BRWD1)
T21 construct: T7 phage strains displaying bromodomains were grown in parallel; purchased DiscoverX; host or cells: T7 phage grown in E. coli host derived from BL21
Protocol: as §1, §2, §3

TAF1(2) = molecular target: T22, TAF1(2) (Homo sapiens, UniProt P21675); assay: BromoKdMAX (BROMOscan, DiscoverX); format: binding
T22 construct: T7 phage strains displaying bromodomains were grown in parallel; purchased DiscoverX; host or cells: T7 phage grown in E. coli host derived from BL21
Protocol: as §1, §2, §3

BRPF3 = molecular target: T23, BRPF3 (Homo sapiens, UniProt Q9ULD4); assay: BromoKdMAX (BROMOscan, DiscoverX); format: binding
T23 construct: T7 phage strains displaying bromodomains were grown in parallel; purchased DiscoverX; host or cells: T7 phage in an E. coli host derived from the BL21 strain
Protocol: as §1, §2, §3

BRD8(2) = molecular target: T24, BRD8(2) (Homo sapiens, UniProt Q9H0E9); assay: BromoKdMAX (BROMOscan, DiscoverX); format: binding
T24 construct: T7 phage strains displaying bromodomains were grown in parallel; purchased DiscoverX; host or cells: T7 phage in an E. coli host derived from the BL21 strain
Protocol: as §1, §2, §3

BAZ2B = molecular target: T25, BAZ2B (Homo sapiens, UniProt Q9UIF8); assay: BromoKdMAX (BROMOscan, DiscoverX); format: binding
T25 construct: T7 phage strains displaying bromodomains were grown in parallel; purchased DiscoverX; host or cells: T7 phage in an E. coli host derived from the BL21 strain
Protocol: as §1, §2, §3

PBRM1(2) = molecular target: T26, PBRM1(2) (Homo sapiens, UniProt Q86U86); assay: BromoKdMAX (BROMOscan, DiscoverX); format: binding
T26 construct: T7 phage strains displaying bromodomains were grown in parallel; purchased DiscoverX; host or cells: T7 phage grown in E. coli host derived from BL21
Protocol: as §1, §2, §3

BRD8(1) = molecular target: T27, BRD8(1) (Homo sapiens, UniProt Q9H0E9); assay: BromoKdMAX (BROMOscan, DiscoverX); format: binding
T27 construct: T7 phage strains displaying bromodomains were grown in parallel; purchased DiscoverX; host or cells: T7 phage in an E. coli host derived from the BL21 strain
Protocol: as §1, §2, §3

BRD3(1, 2) = molecular target: T28, BRD3(1, 2) (Homo sapiens, UniProt Q15059); assay: BromoKdMAX (BROMOscan, DiscoverX); format: binding
T28 construct: T7 phage strains displaying bromodomains were grown in parallel; purchased DiscoverX; host or cells: T7 phage in an E. coli host derived from the BL21 strain
Protocol: as §1, §2, §3

TRIM24(PHD, Bromo.) = molecular target: T29, TRIM24(PHD, Bromo.) (Homo sapiens, UniProt O15164); assay: BromoKdMAX (BROMOscan, DiscoverX); format: binding
T29 construct: TRIM24(PHD, Bromo.); purchased DiscoverX; host or cells: T7 phage grown in E. coli host derived from BL21
Protocol: as §1, §2, §3

PBRM1(5) = molecular target: T30, PBRM1(5) (Homo sapiens, UniProt Q86U86); assay: BromoKdMAX (BROMOscan, DiscoverX); format: binding
T30 construct: T7 phage strains displaying bromodomains were grown in parallel; purchased DiscoverX; host or cells: T7 phage grown in E. coli host derived from BL21
Protocol: as §1, §2, §3

T11 sequence (P51532 1453-1564 limits assumed): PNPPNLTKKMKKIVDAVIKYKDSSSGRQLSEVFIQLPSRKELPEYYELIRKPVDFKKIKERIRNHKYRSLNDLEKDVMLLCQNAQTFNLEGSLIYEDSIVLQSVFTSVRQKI
T10 sequence (Q9NPI1 131-235 limits assumed): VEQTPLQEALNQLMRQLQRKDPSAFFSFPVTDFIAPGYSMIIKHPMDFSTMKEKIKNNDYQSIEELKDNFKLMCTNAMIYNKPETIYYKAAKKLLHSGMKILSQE
T9 sequence (Q9ULI0 951-1066 limits assumed): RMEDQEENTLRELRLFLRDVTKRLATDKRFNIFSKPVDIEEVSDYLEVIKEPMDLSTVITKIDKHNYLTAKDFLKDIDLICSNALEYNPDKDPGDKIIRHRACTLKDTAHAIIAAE
T28 sequence (Q15059 24-416 limits assumed): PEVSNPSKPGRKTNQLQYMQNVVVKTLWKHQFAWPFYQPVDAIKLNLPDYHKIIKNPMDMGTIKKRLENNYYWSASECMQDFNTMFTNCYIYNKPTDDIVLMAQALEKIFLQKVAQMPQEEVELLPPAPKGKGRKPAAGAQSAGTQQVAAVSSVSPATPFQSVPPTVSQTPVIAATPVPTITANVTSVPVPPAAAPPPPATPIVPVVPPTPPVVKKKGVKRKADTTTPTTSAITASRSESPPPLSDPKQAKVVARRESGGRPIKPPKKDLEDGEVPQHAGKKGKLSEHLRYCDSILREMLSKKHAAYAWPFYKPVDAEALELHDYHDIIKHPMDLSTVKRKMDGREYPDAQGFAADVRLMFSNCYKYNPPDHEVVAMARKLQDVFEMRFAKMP
T6 sequence (Q6PL18 980-1092 limits assumed): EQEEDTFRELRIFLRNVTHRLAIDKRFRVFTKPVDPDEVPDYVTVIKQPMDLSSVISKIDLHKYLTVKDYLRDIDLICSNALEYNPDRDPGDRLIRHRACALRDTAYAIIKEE
T16 sequence (Q9UIF9 1793-1897 limits assumed): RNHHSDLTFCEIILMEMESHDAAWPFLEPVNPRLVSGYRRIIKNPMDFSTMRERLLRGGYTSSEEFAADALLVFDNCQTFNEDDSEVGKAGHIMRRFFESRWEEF
T8 sequence (Q92830 728-832 limits assumed): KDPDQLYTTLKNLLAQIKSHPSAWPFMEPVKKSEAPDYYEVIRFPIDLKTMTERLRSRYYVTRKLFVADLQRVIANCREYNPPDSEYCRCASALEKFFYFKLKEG
T19 sequence (Q92831 723-827 limits assumed): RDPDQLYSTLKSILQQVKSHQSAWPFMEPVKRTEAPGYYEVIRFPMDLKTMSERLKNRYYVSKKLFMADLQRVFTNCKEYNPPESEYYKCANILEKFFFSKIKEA
T1 sequence (Q9BXF3 434-538 limits assumed): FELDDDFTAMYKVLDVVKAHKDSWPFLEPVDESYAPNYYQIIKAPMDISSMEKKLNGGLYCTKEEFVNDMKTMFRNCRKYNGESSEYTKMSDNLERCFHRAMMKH
T7 sequence (Q15059 306-415 limits assumed): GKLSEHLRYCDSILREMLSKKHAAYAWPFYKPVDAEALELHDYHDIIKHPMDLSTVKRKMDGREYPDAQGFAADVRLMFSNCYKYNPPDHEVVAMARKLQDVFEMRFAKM
T17 sequence (Q9H8M2 136-240 limits assumed): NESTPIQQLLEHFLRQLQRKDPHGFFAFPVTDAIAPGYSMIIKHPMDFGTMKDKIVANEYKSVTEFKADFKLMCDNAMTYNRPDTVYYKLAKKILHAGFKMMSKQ
T21 sequence (Q9NSI6 1313-1418 limits assumed): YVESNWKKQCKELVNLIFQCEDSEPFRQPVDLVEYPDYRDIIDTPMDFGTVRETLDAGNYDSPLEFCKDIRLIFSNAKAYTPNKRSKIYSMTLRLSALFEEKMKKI
T22 sequence (P21675 1519-1628 limits assumed): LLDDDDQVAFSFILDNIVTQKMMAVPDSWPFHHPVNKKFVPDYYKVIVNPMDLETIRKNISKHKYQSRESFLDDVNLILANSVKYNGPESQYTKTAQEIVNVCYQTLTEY
T27 sequence (Q9H0E9 706-811 limits assumed): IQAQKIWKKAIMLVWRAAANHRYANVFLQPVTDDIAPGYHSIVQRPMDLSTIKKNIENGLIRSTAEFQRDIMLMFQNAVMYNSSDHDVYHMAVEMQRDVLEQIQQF
T3 sequence (P51531 1378-1506 limits assumed): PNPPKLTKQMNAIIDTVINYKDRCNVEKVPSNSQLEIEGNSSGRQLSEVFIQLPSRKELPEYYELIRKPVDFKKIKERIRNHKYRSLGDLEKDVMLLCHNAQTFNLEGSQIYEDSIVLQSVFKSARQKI
T23 sequence (Q9ULD4 589-693 limits assumed): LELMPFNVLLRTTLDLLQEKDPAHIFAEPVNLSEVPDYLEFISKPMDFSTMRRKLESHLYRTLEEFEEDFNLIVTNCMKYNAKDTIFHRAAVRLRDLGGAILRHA
T12 sequence (Q15059 34-140 limits assumed): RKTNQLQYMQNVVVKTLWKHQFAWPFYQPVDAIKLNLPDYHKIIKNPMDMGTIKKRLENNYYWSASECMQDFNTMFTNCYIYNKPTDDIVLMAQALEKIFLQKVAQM
T13 sequence (Q8IZX4 1517-1626 limits assumed): as the sequence (P21675 1519-1628 limits assumed) above, with V46M, M51V, V102I, L107I counted along it
T25 sequence (Q9UIF8 2060-2164 limits assumed): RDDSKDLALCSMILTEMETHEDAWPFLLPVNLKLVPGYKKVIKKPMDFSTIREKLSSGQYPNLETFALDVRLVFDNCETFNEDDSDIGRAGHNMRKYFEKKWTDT
T26 sequence (Q86U86 177-287 limits assumed): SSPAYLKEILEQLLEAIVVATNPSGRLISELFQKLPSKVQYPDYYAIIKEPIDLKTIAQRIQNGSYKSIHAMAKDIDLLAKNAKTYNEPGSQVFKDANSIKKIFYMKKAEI
T24 sequence (Q9H0E9 1099-1207 limits assumed): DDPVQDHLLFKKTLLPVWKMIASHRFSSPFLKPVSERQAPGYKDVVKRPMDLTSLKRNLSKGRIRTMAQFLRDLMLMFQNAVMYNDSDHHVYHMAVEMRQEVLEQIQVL
T14 sequence (P55201 628-732 limits assumed): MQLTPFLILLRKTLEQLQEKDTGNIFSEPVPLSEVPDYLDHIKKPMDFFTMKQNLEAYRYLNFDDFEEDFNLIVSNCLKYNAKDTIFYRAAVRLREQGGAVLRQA
T30 sequence (Q86U86 653-763 limits assumed): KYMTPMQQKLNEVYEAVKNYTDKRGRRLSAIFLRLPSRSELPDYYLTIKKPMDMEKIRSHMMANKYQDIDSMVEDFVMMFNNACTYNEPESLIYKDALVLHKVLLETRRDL
T29 sequence (O15164 824-1006 limits assumed): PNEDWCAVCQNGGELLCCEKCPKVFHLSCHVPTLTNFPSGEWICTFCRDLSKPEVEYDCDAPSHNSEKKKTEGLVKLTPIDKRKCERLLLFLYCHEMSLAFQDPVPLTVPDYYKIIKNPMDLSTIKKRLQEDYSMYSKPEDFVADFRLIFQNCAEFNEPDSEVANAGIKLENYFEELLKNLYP
T2 sequence (O95696 562-666 limits assumed): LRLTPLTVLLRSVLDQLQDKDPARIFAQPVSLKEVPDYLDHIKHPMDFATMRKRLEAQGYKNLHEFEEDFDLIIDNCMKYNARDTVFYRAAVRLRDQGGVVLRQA
T20 sequence (O15164 899-1004 limits assumed): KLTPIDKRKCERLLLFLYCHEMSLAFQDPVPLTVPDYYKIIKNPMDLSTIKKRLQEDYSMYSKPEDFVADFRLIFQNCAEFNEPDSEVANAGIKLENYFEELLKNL

COc1cncc(-c2cc(Nc3cccc(F)c3)nc([C@@H]3CC[C@H](C)N(C(C)=O)C3)n2)c1 [Compound 00004]
EC50 (OPM-2): < 200 nM | Kd (CECR2): > 10 µM | Kd (BRD1): > 10 µM | Kd (SMARCA2): > 10 µM | Kd (BRDT(1, 2)): > 10 µM | Kd (FALZ): > 10 µM | Kd (ATAD2A): > 10 µM | Kd (BRD3(2)): > 10 µM | Kd (GCN5L2): > 10 µM | Kd (ATAD2B): > 10 µM | Kd (BRD7): > 10 µM | Kd (SMARCA4): > 10 µM | Kd (BRD3(1)): > 10 µM | Kd (TAF1L(2)): > 10 µM | Kd (BRPF1): > 10 µM | Kd (BRDT(2)): > 10 µM | Kd (BAZ2A): > 10 µM | Kd (BRD9): > 10 µM | Kd (BRDT(1)): > 10 µM | Kd (PCAF): > 10 µM | Kd (TRIM24(Bromo.)): > 10 µM | Kd (WDR9(2)): > 10 µM | Kd (TAF1(2)): > 10 µM | Kd (BRPF3): > 10 µM | Kd (BRD8(2)): > 10 µM | Kd (BAZ2B): > 10 µM | Kd (PBRM1(2)): > 10 µM | Kd (BRD8(1)): > 10 µM | Kd (BRD3(1, 2)): > 10 µM | Kd (TRIM24(PHD, Bromo.)): > 10 µM | Kd (PBRM1(5)): > 10 µM

Reference: patent US12478624B2, “Heterocyclic derivatives, pharmaceutical compositions and their use in the treatment or amelioration of cancer” (Tolremo Therapeutics AG, priority 2019, dated 2025)
